According to US10934332B2, “Structure-based peptide inhibitors that target the Tau VQIINK fibrillization segment” (THE REGENTS OF THE UNIVERSITY OF CALIFORNIA, priority 2017, dated 2021):
Where two headings read alike, the source gives them in different places. No end group written: not given here.

What was measured:
[1] = target: T1, Tau40 (Homo sapiens, UniProt P10636); assay: ThT assay of Tau40 fibril formation; type: biochemical; conditions: heparin, shaking 700 rpm, 37° C.
T1 construct: Human Tau40 (residues 1-441) was expressed in pET28b; His-tag (C); made in house; host or cells: BL21-Gold E. coli
T1 sequence (P10636 1-441 isoform P10636-8): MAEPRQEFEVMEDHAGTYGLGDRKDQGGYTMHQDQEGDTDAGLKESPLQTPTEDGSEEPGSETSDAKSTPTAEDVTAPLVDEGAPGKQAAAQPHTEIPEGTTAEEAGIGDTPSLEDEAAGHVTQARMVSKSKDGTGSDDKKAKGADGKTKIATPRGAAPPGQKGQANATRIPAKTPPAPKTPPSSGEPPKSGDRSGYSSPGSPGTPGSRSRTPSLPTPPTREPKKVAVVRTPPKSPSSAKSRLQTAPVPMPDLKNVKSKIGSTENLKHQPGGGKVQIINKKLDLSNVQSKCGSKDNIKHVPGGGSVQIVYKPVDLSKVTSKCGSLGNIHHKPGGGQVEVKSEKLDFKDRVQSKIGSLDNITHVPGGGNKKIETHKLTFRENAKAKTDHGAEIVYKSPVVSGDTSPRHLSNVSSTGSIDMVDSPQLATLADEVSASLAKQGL
Procedure: The effect on fibril formation of Tau40 of the two resulting VQIINK (SEQ ID NO: 11) inhibitors, MINK (which contains a Met at position 4 to disrupt interface A) and WINK (which instead contains a Trp) was evaluated in vitro using a ThT assay.
Human Tau40 (residues 1-441) was expressed in pET28b with a C-terminal His-tag in BL21-Gold E. coli cells grown in TB to an OD600=0.8. Cells were induced with 0.5 mM IPTG for 3 hours at 37° C. and lysed by sonication in 50 mM Tris (pH 8.0) with 500 mM NaCl, 20 mM imidazole, 1 mM beta-mercaptoethanol, and HALT protease inhibitor. Cells were lysed by sonication, clarified by centrifugation at 15,000 rpm for 15 minutes, and passed over a 5 ml HisTrap affinity column. The column was washed with lysis buffer and eluted over a gradient of imidazole from 20 to 300 mM. Fractions containing purified Tau40 were dialyzed into 50 mM MES buffer (pH 6.0) with 50 mM NaCl and 1 mM beta-mercaptoethanol and purified by cation exchange as described for K18. Peak fractions were polished on a HiLoad 16/600 Superdex […] in 1×PBS (pH 7.4), and concentrated to ˜20-60 mg/ml by ultrafiltration using a 10 kDa cutoff.
Concentrated Tau protein was diluted into PBS buffer (pH 7.4) to a final concentration as indicated in the text. Proteins were shaken as solutions containing 75 μM ThT, 0.5 mg/ml heparin, 1 mM DTT, and a two-fold molar excess of inhibitor (when indicated) in 96-well plates with a plastic bead to enhance agitation. ThT fluorescence was measured with excitation and emission wavelengths of 440 and 480 nm, and averaged curves were generated from duplicate measurements.

[2] = system: HEK293 biosensor cells stably expressing full-length Tau 4R1N P301S-EYFP; assay: Biosensor cell seeding with Tau40 fiber grown in the presence of inhibitor; type: cell-based, human; conditions: cells seeded with 125 nM Tau40 fiber grown with two-fold excess of inhibitor; about 61% in the absence of inhibitor
Description: Cells seeded with Tau40 fiber grown with MINK or WINK reduced the percentage of seeded cells to 23 and 41%, respectively.
(§1) Engineered HEK293 cell lines stably expressing Tau40-YFP P301S, referred to as “tau biosensor cells” were engineered by Marc Diamond's lab at UTSW. Cells were maintained in DMEM (Life Technologies, cat. 11965092) supplemented with 10% (vol/vol) FBS (Life Technologies, cat. A3160401), 1% penicillin/streptomycin (Life Technologies, cat. 15140122), and 1% Glutamax (Life Technologies, cat. 35050061) at 37° C., 5% CO2 in a humidified incubator. Tau40 aggregates were prepared in PBS (pH 7.4) with 1 mM DTT by shaking 25 μM Tau40 with 0.5 mg/ml heparin in the presence or absence inhibitor peptide, as indicated. Fibers were sonicated in a cuphorn water bath for 3 minutes before seeding cells. For seeding, fibers were diluted in OptiMEM (Life Technologies, cat. 31985070) and transfected using Lipofectamine 2000 (Life Technologies, cat. 11668027) according to the manufacturer's instructions. After seeding, cells were imaged using a ZEISS Axio Observer D1 fluorescence microscope using the YFP fluorescence channel and Tau aggregates were counted in ImageJ software.

[3] = system: Full-length Tau-YFP biosensor cells seeded with pre-formed Tau40 fibers; type: cell-based, human; conditions: for inhibition of seeding by pre-formed Tau40 fibers (in words): pre-formed Tau40 fibrils incubated with inhibitor before applying to biosensor cells
Procedure: To test whether VQIINK (SEQ ID NO: 11) inhibitors can cap pre-formed fibers to block their spread, Tau40 amyloid fibrils were incubated with varying concentrations of inhibitor before applying to biosensor cells and measuring seeding. In addition, a third VQIINK (SEQ ID NO: 11) inhibitor, RINK which contains an Arg at position 4, was also tested.
as §1

[4] = 10 μM Tau40, two-fold mole excess of inhibitor
[5] = 25 μM Tau40, two-fold mole excess of inhibitor

| Substance | Tau40 fibril formation (ThT fluorescence) [1, 4] | Tau40 fibril formation (ThT fluorescence) [1, 5] | percentage of seeded cells (cells with intracellular aggregates) [2] [%] | IC50 [3] [µM] | inhibition of seeding by pre-formed Tau40 fibers (in words) [3] | seeding by Tau40 fibers in biosensor cells (fluorescence images) ([3]; 5 μM inhibitor) | seeding by Tau40 fibers in biosensor cells (fluorescence images) ([3]; 25 μM inhibitor) |
| --- | --- | --- | --- | --- | --- | --- | --- |
| DVQMINKKRK [MINK, DVQMINKKRK] | completely inhibiting any detectable Tau40 fibril formation for at least 60 hours | reduced Tau40 aggregation to about half | 23 | 22 | inhibit seeding by Tau40 fibers in a concentration dependent fashion |  |  |
| DVQRINKKRK |  |  |  |  | inhibited more poorly than MINK and WINK |  |  |
| DVQWINKKRK [WINK, DVQWINKKRK] | reducing the amount of Tau40 aggregation to about half | reduced Tau40 aggregation to about half | 41 | 25 | inhibit seeding by Tau40 fibers in a concentration dependent fashion |  |  |
| DVWMINKKRK [W-MINK, DVWMINKKRK] |  |  |  | 9 |  | Tau40 fibers are still able to induce seeding | seeding by Tau40 fibers is no longer observed |
| W-WINK: Phase 2 inhibitor: WINK incorporating a Trp steric clash at position 3 (DVWWINKKRK) |  |  |  |  | performed more poorly than W-MINK |  |  |
